Reference: PubChem BioAssay AID1963831 (Molecular Pharmacology Branch, DTP, NCI, 2024)
pIC50: −log10 of the molar value.

System: 889142-216-R-J1-PDC complex spheroid viability
Assay: Anticancer human tumor 889142-216-R-J1-PDC patient-derived bladder carcinoma cell line growth inhibition [POLQ]
Conditions: for pIC50: curve of first compound; for viability, T/C: stronger effect = lower value
How it was run: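 Growth inhibition in 3D: complex spheroids (tumor PDC, HUVEC, MSC) treated with POLQ inhibitor combinations; where Cmax unknown, highest tested concentration 10 microM, except SN-38 at 1 microM.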

[1] = second compound 0.0316 µM, first compound 0.0316 µM
[2] = second compound 0.0316 µM, first compound 0.1 µM
[3] = second compound 0.0316 µM, first compound 0.316 µM
[4] = second compound 0.0316 µM, first compound 1 µM
[5] = second compound 0.0316 µM, first compound 3.16 µM
[6] = second compound 0.0316 µM, first compound 10 µM
[7] = second compound 0.1 µM, first compound 0.0316 µM
[8] = second compound 0.1 µM, first compound 0.1 µM
[9] = second compound 0.1 µM, first compound 0.316 µM
[10] = second compound 0.1 µM, first compound 1 µM
[11] = second compound 0.1 µM, first compound 3.16 µM
[12] = second compound 0.1 µM, first compound 10 µM
[13] = second compound 0.316 µM, first compound 0.0316 µM
[14] = second compound 0.316 µM, first compound 0.1 µM
[15] = second compound 0.316 µM, first compound 0.316 µM
[16] = second compound 0.316 µM, first compound 1 µM
[17] = second compound 0.316 µM, first compound 3.16 µM
[18] = second compound 0.316 µM, first compound 10 µM
[19] = second compound 1 µM, first compound 0.0316 µM
[20] = second compound 1 µM, first compound 0.1 µM
[21] = second compound 1 µM, first compound 0.316 µM
[22] = second compound 1 µM, first compound 1 µM
[23] = second compound 1 µM, first compound 3.16 µM
[24] = second compound 1 µM, first compound 10 µM
[25] = second compound 3.16 µM, first compound 0.0316 µM
[26] = second compound 3.16 µM, first compound 0.1 µM
[27] = second compound 3.16 µM, first compound 0.316 µM
[28] = second compound 3.16 µM, first compound 1 µM
[29] = second compound 3.16 µM, first compound 3.16 µM
[30] = second compound 3.16 µM, first compound 10 µM
[31] = second compound 10 µM, first compound 0.0316 µM
[32] = second compound 10 µM, first compound 0.1 µM
[33] = second compound 10 µM, first compound 0.316 µM
[34] = second compound 10 µM, first compound 1 µM
[35] = second compound 10 µM, first compound 3.16 µM
[36] = second compound 10 µM, first compound 10 µM
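Also: spheroids exposed to compounds for seven days.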
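For viability, T/C in this document: 100% = DMSO vehicle control viability.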

COc1cccc2c1C(=O)c1c(O)c3c(c(O)c1C2=O)CC(O)(C(=O)CO)CC3OC1CC(N)C(O)C(C)O1 (stereo not drawn) + COC1C(OC(N)=O)C(O)C(Oc2ccc3c(O)c(NC(=O)c4ccc(O)c(CC=C(C)C)c4)c(=O)oc3c2C)OC1(C)C
pIC50 (second compound 0.0316 µM): 6.77 | pIC50 (second compound 0.1 µM): 6.79 | pIC50 (second compound 0.316 µM): 6.76 | pIC50 (second compound 1 µM): 6.76 | pIC50 (second compound 3.16 µM): 6.60 | pIC50 (second compound 10 µM): 6.66 | viability, T/C [1]: 59.9% | viability, T/C [2]: 68.7% | viability, T/C [3]: 33.4% | viability, T/C [4]: 2.42% | viability, T/C [5]: 0.42% | viability, T/C [6]: 0.92% | viability, T/C [7]: 53.4% | viability, T/C [8]: 67.9% | viability, T/C [9]: 36% | viability, T/C [10]: 4.22% | viability, T/C [11]: 0.75% | viability, T/C [12]: 0.62% | viability, T/C [13]: 56.7% | viability, T/C [14]: 67.5% | viability, T/C [15]: 36.8% | viability, T/C [16]: 1.29% | viability, T/C [17]: 0.94% | viability, T/C [18]: 0.7% | viability, T/C [19]: 60.6% | viability, T/C [20]: 63.1% | viability, T/C [21]: 37.3% | viability, T/C [22]: 3.64% | viability, T/C [23]: 0.4% | viability, T/C [24]: 1.06% | viability, T/C [25]: 62.3% | viability, T/C [26]: 59.1% | viability, T/C [27]: 47.5% | viability, T/C [28]: 2.54% | viability, T/C [29]: 0.84% | viability, T/C [30]: 0.98% | viability, T/C [31]: 62% | viability, T/C [32]: 62.5% | viability, T/C [33]: 44.3% | viability, T/C [34]: 2.05% | viability, T/C [35]: 1.06% | viability, T/C [36]: 0.92%

CCc1cc2c(N3CCc4c(cc(Cn5ccnc5)cc4-c4cn(C)nc4C(F)(F)F)C3=O)ccnc2c(OC)n1 + Cc1cccc(N(C)C(=O)C2C(O)CCN2c2nc(C)cc(C(F)(F)F)c2C#N)c1
pIC50 (second compound 0.0316 µM): < 5.00 | pIC50 (second compound 0.1 µM): < 5.00 | pIC50 (second compound 0.316 µM): < 5.00 | pIC50 (second compound 1 µM): < 5.00 | pIC50 (second compound 3.16 µM): < 5.00 | pIC50 (second compound 10 µM): < 5.00 | viability, T/C [1]: 110% | viability, T/C [2]: 98.7% | viability, T/C [3]: 121% | viability, T/C [4]: 125% | viability, T/C [5]: 127% | viability, T/C [6]: 103% | viability, T/C [7]: 95.2% | viability, T/C [8]: 116% | viability, T/C [9]: 120% | viability, T/C [10]: 123% | viability, T/C [11]: 102% | viability, T/C [12]: 87.3% | viability, T/C [13]: 116% | viability, T/C [14]: 115% | viability, T/C [15]: 130% | viability, T/C [16]: 140% | viability, T/C [17]: 132% | viability, T/C [18]: 76.8% | viability, T/C [19]: 93% | viability, T/C [20]: 85.7% | viability, T/C [21]: 148% | viability, T/C [22]: 122% | viability, T/C [23]: 127% | viability, T/C [24]: 74.5% | viability, T/C [25]: 85.3% | viability, T/C [26]: 107% | viability, T/C [27]: 128% | viability, T/C [28]: 115% | viability, T/C [29]: 109% | viability, T/C [30]: 75.8% | viability, T/C [31]: 86.5% | viability, T/C [32]: 88% | viability, T/C [33]: 102% | viability, T/C [34]: 87.6% | viability, T/C [35]: 92.9% | viability, T/C [36]: 74.3%

Nc1ccn(C2OC(CO)C(O)C2(F)F)c(=O)n1 (stereo not drawn) + Nc1ccc(C#CCN(C(=O)Cc2ncc(C(F)(F)F)cc2C(F)(F)F)c2ccc(F)cc2)nn1
pIC50 (second compound 0.0316 µM): 6.63 | pIC50 (second compound 0.1 µM): 6.41 | pIC50 (second compound 0.316 µM): 6.44 | pIC50 (second compound 1 µM): 6.53 | pIC50 (second compound 3.16 µM): 5.47 | pIC50 (second compound 10 µM): 5.28 | viability, T/C [1]: 74.1% | viability, T/C [2]: 56.1% | viability, T/C [3]: 46% | viability, T/C [4]: 45.2% | viability, T/C [5]: 40.9% | viability, T/C [6]: 35.9% | viability, T/C [7]: 62.8% | viability, T/C [8]: 57.8% | viability, T/C [9]: 48.9% | viability, T/C [10]: 47.2% | viability, T/C [11]: 38.8% | viability, T/C [12]: 34.5% | viability, T/C [13]: 61.8% | viability, T/C [14]: 56.1% | viability, T/C [15]: 50.9% | viability, T/C [16]: 44% | viability, T/C [17]: 45.6% | viability, T/C [18]: 39.6% | viability, T/C [19]: 69.8% | viability, T/C [20]: 55.6% | viability, T/C [21]: 47% | viability, T/C [22]: 48.5% | viability, T/C [23]: 43.5% | viability, T/C [24]: 36.7% | viability, T/C [25]: 56.4% | viability, T/C [26]: 60.7% | viability, T/C [27]: 60% | viability, T/C [28]: 55.7% | viability, T/C [29]: 49.5% | viability, T/C [30]: 39.7% | viability, T/C [31]: 88.9% | viability, T/C [32]: 73.6% | viability, T/C [33]: 69.5% | viability, T/C [34]: 51.7% | viability, T/C [35]: 55.7% | viability, T/C [36]: 46.5%

CCCS(=O)(=O)Nc1ccc(F)c(C(=O)c2c[nH]c3ncc(-c4ccc(Cl)cc4)cc23)c1F + COC1C(OC(N)=O)C(O)C(Oc2ccc3c(O)c(NC(=O)c4ccc(O)c(CC=C(C)C)c4)c(=O)oc3c2C)OC1(C)C
pIC50 (second compound 0.0316 µM): 5.26 | pIC50 (second compound 0.1 µM): 5.30 | pIC50 (second compound 0.316 µM): 5.15 | pIC50 (second compound 1 µM): 5.21 | pIC50 (second compound 3.16 µM): 5.28 | pIC50 (second compound 10 µM): 5.21 | viability, T/C [1]: 108% | viability, T/C [2]: 108% | viability, T/C [3]: 93.5% | viability, T/C [4]: 109% | viability, T/C [5]: 62.2% | viability, T/C [6]: 36.9% | viability, T/C [7]: 126% | viability, T/C [8]: 110% | viability, T/C [9]: 98.5% | viability, T/C [10]: 91.9% | viability, T/C [11]: 55% | viability, T/C [12]: 34.9% | viability, T/C [13]: 126% | viability, T/C [14]: 98.3% | viability, T/C [15]: 92.8% | viability, T/C [16]: 99.5% | viability, T/C [17]: 69.7% | viability, T/C [18]: 39.6% | viability, T/C [19]: 101% | viability, T/C [20]: 109% | viability, T/C [21]: 104% | viability, T/C [22]: 93.9% | viability, T/C [23]: 64.5% | viability, T/C [24]: 40% | viability, T/C [25]: 116% | viability, T/C [26]: 115% | viability, T/C [27]: 98% | viability, T/C [28]: 80.4% | viability, T/C [29]: 63.9% | viability, T/C [30]: 34.6% | viability, T/C [31]: 104% | viability, T/C [32]: 105% | viability, T/C [33]: 95.5% | viability, T/C [34]: 90% | viability, T/C [35]: 68.2% | viability, T/C [36]: 36.2%
